Experiments:
Assay in all cases: Bliss excess, mean over the matrix (fraction); higher = more synergy
[1] = tested on: COLO-680N (Esophageal Squamous Cell Carcinoma)
Outline: (§1)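 After 24 hours at 37°C and 5% CO2 in 1536-well plates, cells in DMEM/F12 or RPMI plus 10% FBS received two-drug dose matrices for 72 hours. Viability came from CellTiter-Glo 2.0 luminescence and was scaled as inhibition, anchored at 0 by vehicle wells and at 1 by blank wells. Combination Emax is taken as the second-highest inhibition in the matrix, and Bliss excess as the observed combination effect less EA + EB − EA·EB, with EA and EB the single-agent effects.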

[2] = tested on: FADU (Head and Neck Carcinoma)
Outline: as §1

[3] = tested on: HCT-15 (Colorectal Carcinoma)
Outline: as §1

[4] = tested on: HEC-1 (Endometrial Carcinoma)
Outline: as §1

IST-MES1 (Mesothelioma) = tested on: IST-MES1 (Mesothelioma)
Outline: as §1

LN-229 (Glioblastoma) = tested on: LN-229 (Glioblastoma)
Outline: as §1

[5] = tested on: MFE-280 (Endometrial Carcinoma)
Outline: as §1

[6] = tested on: MKN45 (Gastric Carcinoma)
Outline: as §1

[7] = tested on: NCI-H23 (Lung Adenocarcinoma)
Outline: as §1

[8] = tested on: NCI-H2342 (Lung Adenocarcinoma)
Outline: as §1

[9] = tested on: NCI-H446 (Small Cell Lung Carcinoma)
Outline: as §1

[10] = tested on: OAW-42 (Ovarian Carcinoma)
Outline: as §1

[11] = tested on: OPM-2 (Plasma Cell Myeloma)
Outline: as §1

[12] = tested on: OVMIU (Ovarian Carcinoma)
Outline: as §1

[13] = tested on: PANC-03-27 (Pancreatic Carcinoma)
Outline: as §1

[14] = tested on: PC-3_[JPC-3] (Lung Adenocarcinoma)
Outline: as §1

[15] = tested on: RCM-1 (Colorectal Carcinoma)
Outline: as §1

[16] = tested on: RERF-GC-1B (Gastric Carcinoma)
Outline: as §1

[17] = tested on: SHP-77 (Small Cell Lung Carcinoma)
Outline: as §1

[18] = tested on: SK-PN-DW (Other Solid Carcinomas)
Outline: as §1

SMILES | Bliss excess [1] | Bliss excess [2] | Bliss excess [3] | Bliss excess [4] | Bliss excess (IST-MES1 (Mesothelioma)) | Bliss excess (LN-229 (Glioblastoma)) | Bliss excess [5] | Bliss excess [6] | Bliss excess [7] | Bliss excess [8] | Bliss excess [9] | Bliss excess [10] | Bliss excess [11] | Bliss excess [12] | Bliss excess [13] | Bliss excess [14] | Bliss excess [15] | Bliss excess [16] | Bliss excess [17] | Bliss excess [18]
Cc1c2c(nn1C)CSCc1cc(n(C)n1)CSc1cc(c3ccccc3c1)OCCCc1c(C(=O)O)n(C)c3c-2c(Cl)ccc13 [AZD5991] + C1CN(CCC1(C(=O)N[C@@H](CCO)C2=CC=C(C=C2)Cl)N)C3=NC=NC4=C3C=CN4 [Capivasertib] (first compound max 1 µM, 7x7, partner max 3 µM) | -0.0223 | 0.0213 | 0.002 | -0.025 | -0.0195 | 0.0178 | 0.027 | -0.0262 | -0.0276 | 0.0351 | 0.0419 | 0.0312 | -0.0121 | 0.0023 | 0.002 | -0.0062 | 0.0005 | -0.0124 | -0.0033 | 0.032
CN(CCO)CC[C@H](CSc1ccccc1)Nc1ccc(S(=O)(=O)NC(=O)c2ccc(N3CCC([C@@H](O)c4ccccc4-c4ccc(Cl)cc4)CC3)cc2)cc1S(=O)(=O)C(F)(F)F [AZD4320] + C[C@@H](Nc1cc(F)cc(F)c1)c1cc(C(=O)N(C)C)cc2c(=O)cc(N3CCOCC3)oc12 [AZD8186] (first compound max 1 µM, 7x7, partner max 3 µM) | 0.0088 | 0.041 | 0.0162 | 0.0133 | 0.0552 | 0.0166 | 0.0097 | -0.0724 | 0.08 | -0.0065 | 0.0281 | 0.0688 | 0.0851 | -0.0637 | 0.0439 | -0.0176 | -0.0416 | 0.0112 | 0.0216 | -0.0087
CN(CCO)CC[C@H](CSc1ccccc1)Nc1ccc(S(=O)(=O)NC(=O)c2ccc(N3CCC([C@@H](O)c4ccccc4-c4ccc(Cl)cc4)CC3)cc2)cc1S(=O)(=O)C(F)(F)F [AZD4320] + C[C@@H]1COCCN1C2=NC(=NC(=C2)C3(CC3)[S@](=N)(=O)C)C4=C5C=CNC5=NC=C4 [AZD6738] (first compound max 1 µM, 7x7, partner max 10 µM) | -0.0302 | -0.0165 | 0.0099 | 0.0028 | -0.0338 | 0.0358 | 0.0099 | -0.0471 | -0.0073 | -0.0429 | 0.0178 | -0.0315 | -0.0534 | 0.0069 | -0.0392 | -0.0469 | -0.0391 | 0.072 | -0.0032 | -0.0551
CC(=O)c1c(C)c2cnc(Nc3ccc(N4CCNCC4)cn3)nc2n(C2CCCC2)c1=O [Palbociclib] + CC1(C)CCC(CN2CCN(c3ccc(C(=O)NS(=O)(=O)c4ccc(NCC5CCOCC5)c([N+](=O)[O-])c4)c(Oc4cnc5[nH]ccc5c4)c3)CC2)=C(c2ccc(Cl)cc2)C1 [Venetoclax] (first compound max 10 µM, 7x7, partner max 1 µM) | -0.0445 | -0.0596 | 0.0105 | -0.0489 | -0.0203 | -0.0652 | -0.068 | -0.0481 | -0.0199 | -0.0564 | 0.0219 | -0.0365 | 0.017 | -0.0402 | -0.0545 | -0.0487 | -0.0717 | -0.048 | 0.0543 | -0.0063
COc1nnc2ccc(N3CCC(c4ccc(OCCN5CCN(C)C(=O)[C@H]5C)cc4)CC3)nn12 [AZD5153] + CCN(CCO)CCCOc1ccc2c(Nc3cc(CC(=O)Nc4cccc(F)c4)[nH]n3)ncnc2c1 [AZD2811] (first compound max 1 µM, 7x7, partner max 1 µM) | -0.0833 | -0.0529 | -0.0143 | -0.0176 | -0.0132 | 0.0112 | -0.0343 | -0.01 | -0.0412 | -0.01 | -0.0481 | -0.0491 | 0.0194 | -0.0733 | -0.0487 | -0.0306 | -0.03 | -0.096 | -0.0325 | -0.0677
